Measured values: patent publication US20230014181A1, “CULTURE SYSTEM AND METHODS FOR IMPROVED MODELING OF NEUROLOGICAL CONDITIONS” (Genentech, Inc., priority 2021, published 2023)
Like-named read-outs stand apart in the source and are kept apart here.

Key:
[1] = test system: human iPSC neurons, astrocytes and microglia treated with 5 μM sAβ42s; test: Focused small molecule screen, triple culture (neuron, astrocyte, microglia), rescue from sAβ42s toxicity; format: cell-based; conditions: for percent rescue from sAβ42s toxicity at 0.78 µM / percent rescue from sAβ42s toxicity at 3.13 µM / percent rescue from sAβ42s toxicity at 12.5 µM: Homo sapiens, iPSC
Experimental: (§1) FIGS. 11A-11D show synapse % rescue versus MAP2% rescue (FIGS. 11A-11B) and beta III tubulin % rescue versus MAP2% rescue (FIGS. 11C-11D), in neurons and astrocytes (FIGS. 11A and 11C) or neurons, astrocytes, and microglia (FIGS. 11B and 11D) treated with 5 μM sAβ42s and small molecules from a focused screen of known neuroprotective agents at multiple concentrations (50 μM, 25 μM, 12.5 μM and 6.25 μM (double culture), 50 μM, 12.5 μM, 3.1 μM and 0.78 μM (triple culture). Small molecules that prevented toxicity in dendrites (MAP2), synapses (Synapsin 1/2), cell count (CUX2), or axons ([…]) at or above 30% were considered hits (red dotted line).
Frozen cells were thawed and immediately seeded at a density of 8,000 cells/well of a 384-well plate onto 8-week old neuron-astrocyte co-culture in Microglia media (BrainPhys™ neuronal media (Stem Cell Technologies) supplemented with 1× B27 with vitamin A, 1×N2 Plus Media Supplement (R&D Systems), 20 ng/mL BDNF, 20 ng/mL GDNF, 1 mM creatine, 200 nM L-ascorbic acid, 1 μg/mL mouse laminin, 0.5 mM GlutaMAX™ (Thermofisher), 0.5× penicillin-streptomycin, 1× normocin, 5 ng/mL TGF-β, 100 ng/mL human IL-34, 1.5 μg/mL cholesterol, 1 ng/mL gondoic acid, 100 ng/mL oleic acid, 460 μM thioglycerol, 1× insulin-transferrin-selenium, 25 ng/mL rhM-CSF, 5.4 μg/mL human insulin solution).
(§2) In double (neuron, astrocyte) and triple (neuron, astrocyte, microglia) cultures, each small molecule listed in Table 1 was tested in the AD model paradigm at up to four concentrations. Molecules that characterized ≥30% rescue in any of the four measurements of dendrites area (MAP2), synapses count (synapsin 1/2), or cell count (CUX2), or axon area (Beta III Tubulin; “BT3”)) were classified as hits (FIGS. 11A-11D, Table 2, and Table 3).

[2] = test system: human iPSC neurons and astrocytes treated with 5 μM sAβ42s; test: Focused small molecule screen, double culture (neuron, astrocyte), rescue from sAβ42s toxicity, high content imaging; format: cell-based; conditions: double culture, 5 μM sAβ42s; for percent rescue from sAβ42s toxicity at 6.25 µM / percent rescue from sAβ42s toxicity at 12.5 µM / percent rescue from sAβ42s toxicity at 25 µM: Homo sapiens, iPSC
Experimental: as §1
Neurons from both NSC lines were evaluated by immunofluorescence staining. Briefly, cells were fixed with 4% PFA and 4% sucrose at room temperature for 20 minutes using Bravo automation. Fixed cells were then washed 2 times with PBS using Biotek 406 microplate washer (Beckman Coulter), followed by permeabilization and blocking by incubation with a solution containing 1×PBS, 0.1% Triton X-100, 2% donkey serum, and 1% BSA at room temperature for 30 minutes. Blocking solution was removed and cells were incubated with primary antibodies in blocking solution overnight at 4° C. After washing 6 times with PBS on Biotek 406 cell plate washer (Beckman Coulter), cells were then incubated with fluorophore-conjugated secondary antibodies for 1 hour at room temperature in the dark to avoid photobleaching. Cells were then washed 6 more times in with PBS before imaging. Fluorescent images were captured using IN Cell 6000 confocal microscope (GE Healthcare Life Sciences). The image analysis was performed with IN Cell 6000 analysis software.
Prior to experimentation, media volume in wells containing neurons was equalized with liquid handling automation (Bravo) in order to ensure precise control of concentrations. All Aβ42 oligomers, anti-Aβ, small molecules, inflammatory cytokines were prepared at 10× concentration and added to Neuronal Culture Media at an appropriate volume. For the repeated dosing experiments, the media were refreshed 50% at each dosing first, before adding Aβ42 oligomers, and/or anti-Aβ antibody at the specified final concentration.
as §2

## CN1CCN(CCOc2cc(OC3CCOCC3)c3c(Nc4c(Cl)ccc5c4OCO5)ncnc3c2)CC1 [Saracatinib (AZD0530), Saracatinib]
[1]; 0.78 μM compound, read-out: % B3T rescue
  percent rescue from sAβ42s toxicity at 0.78 µM: 99%
[1]; 0.78 μM compound, read-out: % MAP2 rescue
  percent rescue from sAβ42s toxicity at 0.78 µM: 72%
[1]; 0.78 μM compound, read-out: % Synapse rescue
  percent rescue from sAβ42s toxicity at 0.78 µM: 65%
[1]; 3.13 μM compound, read-out: % B3T rescue
  percent rescue from sAβ42s toxicity at 3.13 µM: 99%
[1]; 3.13 μM compound, read-out: % MAP2 rescue
  percent rescue from sAβ42s toxicity at 3.13 µM: 73%
[1]; 3.13 μM compound, read-out: % Synapse rescue
  percent rescue from sAβ42s toxicity at 3.13 µM: 65%
[1]; 12.50 μM compound, read-out: % B3T rescue
  percent rescue from sAβ42s toxicity at 12.5 µM: 35%
[1]; 12.50 μM compound, read-out: % MAP2 rescue
  percent rescue from sAβ42s toxicity at 12.5 µM: -12%
[1]; 12.50 μM compound, read-out: % Synapse rescue
  percent rescue from sAβ42s toxicity at 12.5 µM: -2%
[2]; 6.25 μM compound, read-out: % B3T rescue
  percent rescue from sAβ42s toxicity at 6.25 µM: 62%
[2]; 6.25 μM compound, read-out: % Cux2 rescue
  percent rescue from sAβ42s toxicity at 6.25 µM: 7%
[2]; 6.25 μM compound, read-out: % MAP2 rescue
  percent rescue from sAβ42s toxicity at 6.25 µM: 61%
[2]; 6.25 μM compound, read-out: % Synapse rescue
  percent rescue from sAβ42s toxicity at 6.25 µM: 32%
[2]; 12.5 μM compound, read-out: % B3T rescue
  percent rescue from sAβ42s toxicity at 12.5 µM: 56%
[2]; 12.5 μM compound, read-out: % Cux2 rescue
  percent rescue from sAβ42s toxicity at 12.5 µM: 13%
[2]; 12.5 μM compound, read-out: % MAP2 rescue
  percent rescue from sAβ42s toxicity at 12.5 µM: 71%
[2]; 12.5 μM compound, read-out: % Synapse rescue
  percent rescue from sAβ42s toxicity at 12.5 µM: 34%
[2]; 25 μM compound, read-out: % B3T rescue
  percent rescue from sAβ42s toxicity at 25 µM: 30%
[2]; 25 μM compound, read-out: % Cux2 rescue
  percent rescue from sAβ42s toxicity at 25 µM: 18%
[2]; 25 μM compound, read-out: % MAP2 rescue
  percent rescue from sAβ42s toxicity at 25 µM: 65%
[2]; 25 μM compound, read-out: % Synapse rescue
  percent rescue from sAβ42s toxicity at 25 µM: 10%

## CN(C)S(=O)(=O)c1ccc2c(c1)/C(=C/c1cc3c([nH]1)CCCC3)C(=O)N2 [SU6656]
[1]; 0.78 μM compound
  % B3T rescue: 80%
  % MAP2 rescue: 58%
  % Synapse rescue: 51%
[1]; 3.13 μM compound
  % B3T rescue: 92%
  % MAP2 rescue: 72%
  % Synapse rescue: 64%
[1]; 12.50 μM compound
  % B3T rescue: 71%
  % MAP2 rescue: 53%
  % Synapse rescue: 49%
[1]; 50.00 μM compound
  % B3T rescue: 48%
  % MAP2 rescue: 40%
  % Synapse rescue: 36%
[2]; 6.25 μM compound
  % B3T rescue: 4%
  % Cux2 rescue: 101%
  % MAP2 rescue: 5%
  % Synapse rescue: 13%
[2]; 12.5 μM compound
  % B3T rescue: 3%
  % Cux2 rescue: 120%
  % MAP2 rescue: 4%
  % Synapse rescue: 11%
[2]; 25 μM compound
  % B3T rescue: −37%
  % Cux2 rescue: 126%
  % MAP2 rescue: 3%
  % Synapse rescue: 15%
[2]; 50 μM compound
  % B3T rescue: −188%
  % Cux2 rescue: 106%
  % MAP2 rescue: 3%
  % Synapse rescue: 11%

## MDL 28170
[1]; 0.78 μM compound
  % B3T rescue: 30%
  % MAP2 rescue: 19%
  % Synapse rescue: 10%
[1]; 12.50 μM compound
  % B3T rescue: 33%
  % MAP2 rescue: 31%
  % Synapse rescue: 8%
[1]; 50.00 μM compound
  % B3T rescue: 73%
  % MAP2 rescue: 47%
  % Synapse rescue: 41%
[2]; 6.25 μM compound
  % B3T rescue: 18%
  % Cux2 rescue: 81%
  % MAP2 rescue: 33%
  % Synapse rescue: 10%
[2]; 12.5 μM compound
  % B3T rescue: 22%
  % Cux2 rescue: 74%
  % MAP2 rescue: 33%
  % Synapse rescue: 9%
[2]; 25 μM compound
  % B3T rescue: 25%
  % Cux2 rescue: 84%
  % MAP2 rescue: 36%
  % Synapse rescue: 11%
[2]; 50 μM compound
  % B3T rescue: 47%
  % Cux2 rescue: 57%
  % MAP2 rescue: 26%
  % Synapse rescue: 23%

## COC(=O)C1(C)c2[nH]c3ccccc3c2CCN1C(=O)CCl (stereo not drawn) [PDI Inhibitor 16F16]
[1]; 3.13 μM compound
  % B3T rescue: 71%
  % MAP2 rescue: 44%
  % Synapse rescue: 43%
[1]; 12.50 μM compound
  % B3T rescue: 43%
  % MAP2 rescue: −6%
  % Synapse rescue: 8%
[1]; 50.00 μM compound
  % B3T rescue: 42%
  % MAP2 rescue: −5%
  % Synapse rescue: −1%
[2]; 6.25 μM compound
  % B3T rescue: 27%
  % Cux2 rescue: 46%
  % MAP2 rescue: 6%
  % Synapse rescue: 5%
[2]; 12.5 μM compound
  % B3T rescue: 3%
  % Cux2 rescue: 45%
  % MAP2 rescue: 1%
  % Synapse rescue: −1%
[2]; 25 μM compound
  % B3T rescue: −46%
  % Cux2 rescue: 66%
  % MAP2 rescue: −10%
  % Synapse rescue: −8%
[2]; 50 μM compound
  % B3T rescue: −22%
  % Cux2 rescue: 34%
  % MAP2 rescue: −12%
  % Synapse rescue: −13%
